Here are results for three compounds from US20160113919A1 (The Board of Trustees of the Leland Stanford Junior …, priority 2014, published 2016).

In the assay the test system is INH-resistant ΔkatG H37Rv. Nature of the assay: microbe, parasite or virus in culture. It is filed as cell-based, Mycobacterium tuberculosis.

On to `CCN(CC)CCCC(C)Nc1ccnc2cc(Cl)ccc12` (racemic) [racemic CQ, chloroquine], for which the “EC80 against ΔkatG H37Rv” value was around 50 µM.

As for `CCN(CC)CCC[C@@H](C)Nc1ccnc2cc(Cl)ccc12` [R-CQ, (R)-chloroquine], the “EC80 against ΔkatG H37Rv” value came out at 1 µM and the “microbicidal capacity compared with S-CQ or racemic CQ” value is given as “significantly higher”.

In the case of `CCN(CC)CCC[C@H](C)Nc1ccnc2cc(Cl)ccc12` [S-CQ, (S)-chloroquine], under “Mycobacterium tuberculosis, H37RV, RAW264.7”, the inhibition (in general, how much of the control response was suppressed) at 50 µM was determined as 60%.
